{"source": "paper PMC10821286", "about": "(Marine Drugs, 2023)", "key": {"S. aureus ATCC 25923": {"system": "S. aureus ATCC 25923", "experiment": "microbe, parasite or virus in culture", "type": "cell-based, Staphylococcus aureus", "details": "1 × 10^5 CFU/mL, 37 °C, 12–18 h, triplicate", "experimental": "(§1) Each experiment was performed in triplicate."}, "S. aureus ATCC 43300": {"system": "S. aureus ATCC 43300", "experiment": "microbe, parasite or virus in culture", "type": "cell-based, Staphylococcus aureus", "details": "1 × 10^5 CFU/mL, 37 °C, 12–18 h, triplicate", "experimental": "as §1"}, "S. aureus E48": {"system": "S. aureus E48", "experiment": "microbe, parasite or virus in culture", "type": "cell-based, Staphylococcus aureus", "details": "microbroth dilution, 1 × 10^5 CFU/mL, 37 °C, 12–18 h, triplicate", "experimental": "as §1"}, "[1]": {"system": "S. pseudintermedius A2101", "experiment": "organism not typed", "type": "cell-based", "details": "microbroth dilution, 1 × 10^5 CFU/mL, 37 °C, 12–18 h, triplicate", "experimental": "as §1"}, "S. hyicus NCTC 10350": {"system": "S. hyicus NCTC 10350", "experiment": "microbe, parasite or virus in culture", "type": "cell-based", "details": "1 × 10^5 CFU/mL, 37 °C, 12–18 h, triplicate", "experimental": "as §1"}, "[2]": {"system": "S. epidermidis ATCC 12228", "experiment": "microbe, parasite or virus in culture", "type": "cell-based, Staphylococcus epidermidis", "details": "1 × 10^5 CFU/mL, 37 °C, 12–18 h, triplicate", "experimental": "as §1"}, "S. epidermidis G-81 [3]": {"system": "S. epidermidis G-81", "experiment": "microbe, parasite or virus in culture", "type": "cell-based, Staphylococcus epidermidis", "details": "1 × 10^5 CFU/mL, 37 °C, 12–18 h, triplicate", "experimental": "as §1"}, "E. coli ATCC 25922": {"system": "E. coli ATCC 25922", "experiment": "MIC, microbroth dilution", "type": "cell-based", "details": "Escherichia coli, ATCC25922, 1 × 10^5 CFU/mL, 37 °C, 12–18 h, triplicate"}, "S. epidermidis G-81 [4]": {"system": "S. epidermidis G-81", "experiment": "Time-killing curves", "type": "cell-based, Staphylococcus epidermidis", "details": "S. epidermidis G-81, lincomycin 1× and 2× MIC (positive control), 24 h", "experimental": "Samples were collected at intervals of 0, 0.5, 1, 2, 4, 6, 8, 10, 12, and 24 h, respectively, and subjected to 10-fold serial dilutions followed by colony counting. PBS and Lincomycin were used as negative and positive controls. […] The results were presented as means ± standard deviation (SD)."}, "S. agalactiae ATCC 13813": {"system": "S. agalactiae ATCC 13813", "details": "microbroth dilution, 1 × 10^5 CFU/mL, 37 °C, 12–18 h, triplicate", "experimental": "(§2) The strains to be tested were cultured overnight at 37 °C and then transferred to fresh medium until the logarithmic phase of growth was reached. […] The plate was then incubated at 37 °C for 12–18 h. The minimum concentration of no bacterial growth was recorded as the MIC value. Each experiment was performed in triplicate."}, "[5]": {"system": "S. epidermidis ATCC 35984", "details": "microbroth dilution, 1 × 10^5 CFU/mL, 37 °C, 12–18 h, triplicate", "experimental": "as §2"}, "[6]": {"details": "100 °C, one hour in PBS; read-out MIC against S. epidermidis", "experimental": "(§3) Each experiment was performed in triplicate, and data were analyzed by the GraphPad Prism (version 8, USA, the software download from https://www.graphpad-prism.cn/, accessed on 7 June 2023)."}, "pepsin": {"system": "pepsin", "details": "pepsin 3000 U/mg, pH 2.0, ratio 10:1, 37 °C, 4 h; read-out MIC against S. epidermidis, triplicate", "experimental": "as §3"}, "trypsin": {"system": "trypsin", "details": "trypsin 250 U/mg, pH 8.0, ratio 10:1, 37 °C, 4 h; read-out MIC against S. epidermidis, triplicate", "experimental": "as §3"}, "Ion stability": {"experiment": "Ion stability", "type": "physicochemical", "details": "Zn2+, Mg2+, Ca2+, NH4+, K+, Na+; 37 °C, 4 h (method); read-out MIC against S. epidermidis", "text": "The results were presented as means ± standard deviation (SD)."}, "S. epidermidis G-81 [7]": {"system": "S. epidermidis G-81", "experiment": "Murine subcutaneous abscess model of S. epidermidis infection", "type": "in vivo, BALB/c mice", "details": "mice, day three post-infection", "experimental": "The sterile saline was used for rapid washing twice.\nThe six-week-old BALB/c mice were divided randomly into five groups of nine animals: a normal saline control group, an infection group, three drug treatment groups (including AOD treatment in two groups and lincomycin treatment in one group). The hair removal solution was applied to the abdomen of each mouse in every group. One day later, each group, except for the control group, was subcutaneously injected with 0.1 mL of S. epidermidis G-81 at a concentration of 1 × 10^10 CFU/mL. […] In contrast, the infected group received an injection of 10 μL normal saline. The treatment duration was three days, and we continuously observed the weight and volume changes in the abscesses for 15 days. […] […] The results were presented as means ± standard deviation (SD)."}, "mouse red blood cells": {"system": "mouse red blood cells", "details": "128 μg/mL; mouse erythrocytes, 37 °C, 1 h", "quoted_text": "Erythrocytes from mice of SPF grade were centrifuged at 2000 rpm for 5 min, followed by washes with saline solution three times. […] The mixture was then incubated at 37 °C for 1 h. Subsequently, it was centrifuged at 5000 rpm for 5 min and the supernatant was collected for measurement of the absorbance at OD540 nm. The 0.9% NaCl and 0.1% Triton X-100 were used as blank (A0) and positive (A100) controls, respectively [32]. The percentage of peptide hemolysis is calculated as follows: Hemolysis (%) = [(A − A0)/(A100 − A0)] × 100. Each experiment was performed in triplicate, and data were analyzed by the GraphPad Prism (version 8, USA, the software download from https://www.graphpad-prism.cn/, accessed on 7 June 2023)."}, "Hacat cells": {"system": "Hacat cells", "details": "24 h, cck-8", "quoted_text": "Cell survival rate is calculated as follows: Survival rate (%) = (A/Acontrol) × 100."}}, "note": "Like-named read-outs stand apart in the source and are kept apart here. Where a SMILES comes first, the peptide text is derived from it. Bridges are numbered along the chain shown (N, C = ends).", "data": [{"smiles": "CCC[C@@H]1C[C@@H](C(=O)N[C@@H]([C@H]2O[C@H](SC)[C@H](O)[C@@H](O)[C@H]2O)[C@@H](C)O)N(C)C1", "note": "[Lincomycin, reference compound]", "values": [{"measurement": "MIC", "setting": "S. aureus ATCC 25923; Staphylococcus aureus, ATCC25923, microbroth dilution, read-out: MIC", "value": 1, "unit": "µg/mL"}, {"measurement": "MIC", "setting": "S. aureus ATCC 43300; Staphylococcus aureus, ATCC43300, microbroth dilution, read-out: MIC", "value": "> 64", "unit": "µg/mL"}, {"measurement": "MIC", "setting": "S. aureus E48; Staphylococcus aureus, read-out: MIC", "value": 1, "unit": "µg/mL"}, {"measurement": "MIC", "setting": "[1]; read-out: MIC", "value": 32, "unit": "µg/mL"}, {"measurement": "MIC", "setting": "S. hyicus NCTC 10350; Staphylococcus hyicus, NCTC10350, microbroth dilution, read-out: MIC", "value": 32, "unit": "µg/mL"}, {"measurement": "MIC", "setting": "[2]; Staphylococcus epidermidis, ATCC12228, microbroth dilution, read-out: MIC", "value": 4, "unit": "µg/mL"}, {"measurement": "MIC", "setting": "S. epidermidis G-81 [3]; Staphylococcus epidermidis, G81, microbroth dilution, read-out: MIC", "value": 4, "unit": "µg/mL"}, {"measurement": "MIC", "setting": "E. coli ATCC 25922", "value": 2, "unit": "µg/mL"}, {"measurement": "course of bacterial counts", "setting": "S. epidermidis G-81 [4]", "value": "gradual decrease"}]}, {"smiles": "CC[C@H](C)[C@@H]1NC(=O)[C@H](CO)NC(=O)[C@H](CCCNC(=N)N)NC(=O)[C@@H]2CSSC[C@@H](C(=O)N[C@@H](Cc3ccc(O)cc3)C(=O)N[C@@H](CCCNC(=N)N)C(=O)N[C@@H](CO)C(=O)O)NC(=O)[C@H]([C@@H](C)O)NC(=O)[C@@H]3CSSC[C@H](NC(=O)[C@H](CCC(N)=O)NC(=O)[C@H](Cc4ccc(O)cc4)NC(=O)[C@H](CCCNC(=N)N)NC(=O)[C@H](CC(N)=O)NC(=O)[C@H](Cc4c[nH]c5ccccc45)NC(=O)[C@@H]4CCCN4C(=O)[C@@H](NC(=O)CNC(=O)[C@H](Cc4ccccc4)NC(=O)CN)CSSC[C@H](NC(=O)[C@H](Cc4ccc(O)cc4)NC(=O)CNC(=O)CNC(=O)[C@H](CC(C)C)NC(=O)[C@H](CCCNC(=N)N)NC(=O)CNC1=O)C(=O)N[C@@H](C)C(=O)NCC(=O)N[C@@H](CO)C(=O)N[C@@H](CC(C)C)C(=O)N[C@@H](CCCNC(=N)N)C(=O)N[C@@H](CC(C)C)C(=O)N[C@@H]([C@@H](C)O)C(=O)N3)C(=O)N[C@@H](Cc1c[nH]cn1)C(=O)N[C@@H](CO)C(=O)N[C@@H](Cc1c[nH]cn1)C(=O)N2", "note": "[AOD] (H-GFGCPWNRYQCHSHCRSIGRLGGYCAGSLRLTCTCYRS-OH; disulfide 4-25, 11-33, 15-35)", "values": [{"measurement": "MIC", "setting": "S. aureus ATCC 25923; microbroth dilution", "value": 16, "unit": "µg/mL"}, {"measurement": "MIC", "setting": "S. aureus ATCC 43300; microbroth dilution", "value": 8, "unit": "µg/mL"}, {"measurement": "MIC", "setting": "S. aureus E48", "value": 8, "unit": "µg/mL"}, {"measurement": "MIC", "setting": "[1]", "value": 8, "unit": "µg/mL"}, {"measurement": "MIC", "setting": "S. hyicus NCTC 10350; microbroth dilution", "value": 16, "unit": "µg/mL"}, {"measurement": "MIC", "setting": "S. agalactiae ATCC 13813", "value": 4, "unit": "µg/mL"}, {"measurement": "MIC", "setting": "[5]", "value": 4, "unit": "µg/mL"}, {"measurement": "MIC", "setting": "[2]; microbroth dilution", "value": 4, "unit": "µg/mL"}, {"measurement": "MIC", "setting": "S. epidermidis G-81 [3]; microbroth dilution", "value": 4, "unit": "µg/mL"}, {"measurement": "antibacterial activity remaining after heating", "setting": "[6]", "value": 20, "unit": "%"}, {"measurement": "MIC values after treatment with pepsin", "setting": "pepsin", "value": "remained unchanged"}, {"measurement": "MIC values after treatment with trypsin", "setting": "trypsin", "value": "remained unchanged"}, {"measurement": "ion stability", "setting": "Ion stability", "value": "remarkable stability"}, {"measurement": "heart indices", "setting": "S. epidermidis G-81 [7]", "value": "elevated only in the AOD-treated group"}, {"measurement": "hemolysis rate", "setting": "mouse red blood cells", "value": "less than 0.5%"}, {"measurement": "cell survival rate", "setting": "Hacat cells; 128 μg/mL", "value": "over 83%"}, {"measurement": "cell survival rate", "setting": "Hacat cells; 128 mg/mL (so in the source)", "value": 98, "unit": "%"}]}]}
